Test results reported in patent publication US20250312497A1, “METHOD OF TREATING PROSTATE CANCER” (Novartis AG, priority 2022, published 2025).
Values joined by “and” are separate entries in the source; they are usually repeats but may differ in a detail not shown here. Identical values can stand only once. Like-named read-outs stand apart in the source and are kept apart here.

Columns and labels:
[1] = tested on: PSMA-positive metastatic castration-resistant prostate cancer (mCRPC); assay: PSMAfore phase III: radiographic progression-free survival (rPFS) by blinded independent central review per PCWG3; type: in vivo, human
Description: Radiographic progression-free survival (rPFS) based on independent central review as per PCWG3 criteria is the primary endpoint and overall survival (OS) is the key secondary endpoint for the study. The statistical design of the study is such that, to be declared positive, the study would be required to reach statistical significance on the primary analysis of rPFS.
The primary analysis of rPFS and the first interim analysis of OS were performed using all patients randomized on or before the data cutoff date of 2 Oct. 2022 using a one-sided alpha level of 2.5%. One randomized and treated patient was excluded from Full Analysis Set due to informed consent not obtained per due process (INCL1A PD).

[2] = tested on: PSMA-positive metastatic castration-resistant prostate cancer; details: cited from earlier work
[3] = tested on: metastatic castration-resistant prostate cancer; details: cited from earlier work
[4] = tested on: PSMA-positive metastatic castration-resistant prostate cancer (mCRPC); assay: PSMAfore phase III: radiographic progression-free survival (rPFS) by blinded independent central review per PCWG3; type: in vivo, human; remark: listed apart in the source
[5] = tested on: PSMA-positive mCRPC participants; assay: PSMAfore phase III: patient disposition, treatment discontinuation; type: in vivo, human
Description: Patient disposition (Full analysis set)

[6] = tested on: PSMA-positive metastatic castration-resistant prostate cancer; details: cited from earlier work; remark: listed apart in the source
[7] = tested on: PSMA-positive metastatic castration-resistant prostate cancer (mCRPC); assay: PSMAfore phase III: overall survival (OS), interim analysis; type: in vivo, human; details: first interim analysis DCO 2 Oct 2022
Description: After radiographic progression, follow up for survival will continue.
OS is hierarchically tested based on a three-look group sequential design using a Lan DeMets (O'Brien Flemming) alpha spending function. The final OS analysis was not planned to be performed at the time of the interim rPFS analysis, which is reported in this FIR.
Following the hierarchical testing strategy defined in the study protocol, OS was tested once rPFS was statistically significant. The one-sided alpha level (<0.000000001012) required for a significant OS difference in this first interim analysis was calculated from the pre-specified alpha spending function and the number of events observed at the time of rPFS analysis.
Results in terms of the OS at the time of the first interim OS analysis are based on 13.5% (40/297 deaths).
The second interim analysis for OS is planned after additional follow up when approximately 75% (223/297) of the targeted number of deaths/events have occurred. If OS is not statistically significant at the second interim analysis, a final analysis is planned when approximately 297 deaths have been recorded.

[8] = tested on: PSMA-positive metastatic castration-resistant prostate cancer (mCRPC); assay: PSMAfore phase III: best overall radiological response (soft tissue and bone) by BICR; type: in vivo, human; details: results update
Description: Best overall radiological response accounting for soft tissue and bone disease based on BICR (Recist analysis set—participants with measurable disease at baseline)
Responses are based on soft tissue assessment and bone lesion progression. Best overall responses of CR and PR were confirmed by repeat assessments that were performed not less than 4 weeks after the criteria for response were first met.
CR may include participants with residual but non-progressive bone disease.

[9] = tested on: castrate-resistant metastatic prostate cancer; details: cited from earlier work
[10] = excretory mechanisms, kidneys (Kratochwil et al 2016); cited from earlier work
[11] = DCO 2 Oct 2022, full analysis set
[12] = primary analysis DCO 2 Oct 2022, most recent central vendor data (results update)
[13] = DCO 21 Jun 2023, full analysis set
[14] = Recist analysis set, measurable disease at baseline, BICR

What does the source list for O=C([O-])CN1CCN(CC(=O)[O-])CCN(CC(=O)NCC2CCC(C(=O)N[C@@H](Cc3ccc4ccccc4c3)C(=O)NCCCC[C@H](NC(=O)N[C@@H](CCC(=O)O)C(=O)O)C(=O)O)CC2)CCN(CC(=O)[O-])CC1.[177Lu+3] (stereo partly shown) [[177Lu]Lu-PSMA-617, lutetium (177Lu) vipivotide tetraxetan]?
rPFS events: Death without radiographic progression [1, 11]: 6 (2.6) n(%); rPFS events: Radiographic progression [1, 11]: 55 (23.6) n(%); rPFS: Number of events [1, 11]: 61 (26.2%) n(%) and 61 (26.2) n(%); risk reduction (rPFS) compared to ARDT arm [1, 11]: 58%; rPFS 75th percentile (95% CI) ([1]; DCO 2 Oct 2022, full analysis set, Kaplan-Meier): NE [11.96, NE]; estimated rPFS probability (95% CI) at 6 months [1, 12]: 69.0%; rPFS: Number of events [1, 12]: 60 (25.8%) n (%); TEAE anemia ([2]; VISION): 31.8%; TEAE arthralgia ([2]; VISION): 22.3%; TEAE back pain ([2]; VISION): 23.4%; TEAE constipation ([2]; VISION): 20.2%; TEAE decreased appetite ([2]; VISION): 21.2%; TEAE diarrhea ([2]; VISION): 18.9%; TEAE dry mouth ([2]; VISION): 38.8%; TEAE fatigue ([2]; VISION): 43.1%; TEAE leukopenia ([2]; VISION): 12.5%; TEAE lymphopenia ([2]; VISION): 14.2%; TEAE nausea ([2]; VISION): 35.3%; TEAE thrombocytopenia ([2]; VISION): 17.2%; TEAE vomiting ([2]; VISION): 18.9%; patients reporting treatment-emergent adverse events (TEAEs) ([2]; as of 27 Jan 2021, 519 patients): 98.1%; incidence of adverse events of grade 3 or above ([2]; as of 27 Jan 2021): 52.7%; objective response rate in measurable disease by RECIST (CR and PR) ([3]; 27 participants with measurable disease): 56%; median overall survival ([3]; 95% CI 10.5-18.0): 13.3 months; participants with reduction of PSA of 80% or more ([3]; up to 4 cycles of 4-8 GBq every 6 weeks): 44%; participants with PSA response (reduction in PSA of at least 50%) ([3]; up to 4 cycles of 4-8 GBq every 6 weeks, post-taxane, post abiraterone/enzalutamide): 64%; rPFS events: Death without radiographic progression [4, 13]: 10 (4.3) n(%); rPFS events: Radiographic progression [4, 13]: 105 (44.9) n(%); rPFS: Number of events [4, 13]: 115 (49.1%) n(%) and 115 (49.1) n(%); risk reduction (rPFS) compared to ARDT arm ([4]; updated exploratory analysis DCO 21 Jun 2023): 57%; treatment discontinuation due to adverse event ([5]; DCO 2 Oct 2022): 3.9%; Reason for discontinuation: Adverse event [5, 11]: 9 (3.9) n (%); treatment discontinuation due to adverse event ([5]; DCO 21 Jun 2023): 5.6%; complete response ([6]; RECIST 1.1 measurable target lesions, 17 of 184 patients): 9.2%; partial response ([6]; RECIST 1.1 measurable target lesions, 77 patients): 41.8%; median imaging-based progression-free survival ([6]; plus standard care, vs 3.4 months standard care): 8.7 months; median overall survival ([6]; plus standard care, vs 11.3 months standard care): 15.3 months; hazard ratio for death ([6]; vs standard care, 95% CI 0.52 to 0.74): 0.62; hazard ratio for progression or death ([6]; vs standard care, 99.2% CI 0.29 to 0.57): 0.40; median OS (95% CI) ([7]; Kaplan-Meier): NE [12.16, NE]; OS: Number of events ([7]; full analysis set): 20 (8.6) n(%); Best overall response: Complete response (CR) [8, 14]: 15 (21.1) n (%); Best overall response: Partial response (PR) [8, 14]: 20 (28.2) n (%); Best overall response: Progressive disease (PD) [8, 14]: 14 (19.7) n (%); Best overall response: Unknown (UNK) [8, 14]: 2 (2.8) n (%); Disease Control Rate (DCR: CR + PR + SD) [8, 14]: 55 (77.5) n (%); Overall Response Rate (ORR: CR + PR) [8, 14]: 35 (49.3) n (%); rDCR compared to ARDT [8]: a higher rDCR compared to ARDT; rORR compared to ARDT [8]: at least three times higher rORR compared to ARDT; participants with PSA decline >50% ([9]; 10 participants, 5.6 GBq/150 mCi): 50%; participants with PSA decline >50% ([9]; after 2 cycles of 6 GBq/160 mCi): 60%; injected dose cleared within 48 hours [10]: approximately 50%
